Assays:
Assay type in all cases: biochemical
[1] = biological target: LRRK2 (G2019S) (Homo sapiens, UniProt Q5S007, G2019S); experiment: LRRK2 G2019S enzyme inhibition, ADP-Glo kinase assay; parameters: purchased SignalChem L10-12GG
Experimental: (§1) In order to evaluate the inhibitory activity of the compounds according to the present invention on LRRK2, LRRK2 (G2019S), DYRK1, CLK1 and TTK kinases, the following experiment was performed.
Example compounds were reacted with the purified human LRRK2 G2019S (L10-12GG, SignalChem) enzyme to evaluate the enzyme inhibitory ability as follows. The reaction buffer was used as the composition of 40 mM Tris-HCl pH7.4, 20 mM MgCl2, 0.5 mg/ml BSA and 50 μM DTT, and the reaction of all test materials was performed on the reaction buffer. The compound was diluted with 10 mM DMSO stock in 12 steps by a serial dilution method, and the enzyme activity was measured at the final compound concentrations of 50, 10, 2, 0.4, 0.08, 0.016, 0.0032, 0.00064, 0.000128, 0.0000256, 0.00000512 and 0.000001024 μM. In the test, the human LRRK2 G2019S (16 ng) enzyme was reacted with the purified ATP (25 μM) and an enzyme substrate (0.2 μg) at 25° C. for 2 hours, and then the enzyme activity was identified using the in vitro ADP-Glo™ kinase assay (promega). The enzyme activity reaction liquid, an ADP-Glo reaction liquid and an enzyme potency detection solution were reacted in a ratio of 2:2:1, and the degree of inhibition of enzyme activity was measured by Luminescence. The degree of inhibition of enzyme activity according to the treatment concentrations of the respective compounds was calculated based on the fluorescence of the enzyme activity of a solvent control group that was not treated with the compound, where the concentration of each compound to inhibit enzyme activity inhibition by 50% was determined as an IC50 (nM) value and obtained using Prism (Version 5.01, GraphPad) software.
(§2) In the table below, the following designations were used for the evaluation of enzyme inhibitory ability.

[2] = biological target: T1, human GST-DYRK1A (full length) (Homo sapiens, UniProt Q13627); experiment: GST-DYRK1A enzyme inhibition, ADP-Glo kinase assay; settings: read-out: DYRK1 IC50
T1 construct: purified human GST-DYRK1A (full length, Thermo scientifics) enzyme; GST; purchased Thermo scientifics
Experimental: as §1
(§3) Example compounds were reacted with the purified human GST-DYRK1A (full length, Thermo scientifics) enzyme to evaluate the enzyme inhibitory ability as follows. As the reaction buffer, the composition of 40 mM Tris-HCl pH 7.4, 20 mM MgCl2, 0.5 mg/mL BSA, and 50 uM DTT was used, and the reaction of all test materials was performed on the reaction buffer. During the test, the human GST-DYRK1A (full length, 10 ng) enzyme, the purified ATP (10 uM), and a specific substrate solution were reacted at 25° C. for 1 hour, and then the enzyme activity was identified using the in vitro ADP-Glo™ kinase assay (promega). Luminescence was measured by reacting the enzyme activity reaction solution, an ADP-Glo reaction solution and the enzyme potency detection solution in a ratio of 2:2:1. The degree of inhibition of enzyme activity according to the treatment concentrations of the respective compounds was calculated based on the fluorescence of the enzyme activity of a solvent control group that was not treated with the compound, where the concentration of each compound to inhibit enzyme activity inhibition by 50% was determined as an IC50 (nM) value. The IC50 of each compound was determined in triplicate data sets and obtained using Prism (version 7.01, GraphPad) software.
as §2

[3] = biological target: T2, human GST-CLK1 (129-end) (Homo sapiens, UniProt P49759); experiment: GST-CLK1 enzyme inhibition, ADP-Glo kinase assay; settings: ATP 10 uM
T2 construct: purified human GST-CLK1 (129-end, Signalchem) enzyme; GST; purchased Signalchem
Experimental: as §1
as §3, with “GST-CLK1 (129-end, Signalchem)” for “GST-DYRK1A (full length, Thermo scientifics)”, “GST-CLK1 (129-end, 3” for “GST-DYRK1A (full length, 10”
as §2

Sequence of LRRK2 (G2019S) (Q5S007 970-2527 G2019S limits assumed): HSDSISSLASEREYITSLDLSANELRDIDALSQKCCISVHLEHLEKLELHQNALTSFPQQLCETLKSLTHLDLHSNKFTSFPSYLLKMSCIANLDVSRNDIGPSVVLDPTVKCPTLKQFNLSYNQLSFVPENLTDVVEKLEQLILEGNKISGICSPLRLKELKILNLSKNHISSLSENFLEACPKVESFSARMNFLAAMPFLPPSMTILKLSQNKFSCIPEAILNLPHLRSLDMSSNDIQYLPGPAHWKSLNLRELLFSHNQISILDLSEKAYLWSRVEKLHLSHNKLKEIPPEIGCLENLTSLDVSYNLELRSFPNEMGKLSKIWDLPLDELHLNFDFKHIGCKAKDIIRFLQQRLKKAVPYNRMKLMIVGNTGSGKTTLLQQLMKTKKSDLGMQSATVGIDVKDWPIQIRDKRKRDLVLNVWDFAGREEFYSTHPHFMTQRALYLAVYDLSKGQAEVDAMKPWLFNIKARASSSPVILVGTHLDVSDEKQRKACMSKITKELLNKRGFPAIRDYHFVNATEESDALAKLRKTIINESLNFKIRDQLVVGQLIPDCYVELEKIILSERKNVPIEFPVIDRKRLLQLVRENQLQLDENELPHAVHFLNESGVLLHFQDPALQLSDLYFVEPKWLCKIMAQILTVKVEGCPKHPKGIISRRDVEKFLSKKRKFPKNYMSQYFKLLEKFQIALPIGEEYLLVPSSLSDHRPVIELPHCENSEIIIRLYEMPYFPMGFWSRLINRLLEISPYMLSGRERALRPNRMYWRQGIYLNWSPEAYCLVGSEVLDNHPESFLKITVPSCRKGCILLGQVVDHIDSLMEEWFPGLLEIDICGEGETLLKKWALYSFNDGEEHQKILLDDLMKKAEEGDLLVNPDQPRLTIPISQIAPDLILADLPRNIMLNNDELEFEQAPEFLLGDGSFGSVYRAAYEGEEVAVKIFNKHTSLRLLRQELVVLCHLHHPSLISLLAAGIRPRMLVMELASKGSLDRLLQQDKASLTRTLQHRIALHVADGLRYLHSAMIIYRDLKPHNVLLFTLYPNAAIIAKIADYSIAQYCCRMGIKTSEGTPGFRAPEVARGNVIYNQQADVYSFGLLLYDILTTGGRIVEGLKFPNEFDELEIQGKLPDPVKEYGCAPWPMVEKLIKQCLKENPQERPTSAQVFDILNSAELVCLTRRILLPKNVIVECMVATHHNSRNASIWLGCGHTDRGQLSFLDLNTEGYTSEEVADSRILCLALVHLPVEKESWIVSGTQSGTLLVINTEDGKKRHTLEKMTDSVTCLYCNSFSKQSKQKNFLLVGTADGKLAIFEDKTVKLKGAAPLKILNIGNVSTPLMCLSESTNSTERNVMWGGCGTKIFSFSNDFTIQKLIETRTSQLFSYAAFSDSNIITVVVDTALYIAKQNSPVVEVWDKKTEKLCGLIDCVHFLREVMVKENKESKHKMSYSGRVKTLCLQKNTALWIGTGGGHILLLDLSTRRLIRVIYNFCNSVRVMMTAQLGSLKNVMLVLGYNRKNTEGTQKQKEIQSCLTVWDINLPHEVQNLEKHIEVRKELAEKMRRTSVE
T2 sequence (P49759 129-484 limits assumed): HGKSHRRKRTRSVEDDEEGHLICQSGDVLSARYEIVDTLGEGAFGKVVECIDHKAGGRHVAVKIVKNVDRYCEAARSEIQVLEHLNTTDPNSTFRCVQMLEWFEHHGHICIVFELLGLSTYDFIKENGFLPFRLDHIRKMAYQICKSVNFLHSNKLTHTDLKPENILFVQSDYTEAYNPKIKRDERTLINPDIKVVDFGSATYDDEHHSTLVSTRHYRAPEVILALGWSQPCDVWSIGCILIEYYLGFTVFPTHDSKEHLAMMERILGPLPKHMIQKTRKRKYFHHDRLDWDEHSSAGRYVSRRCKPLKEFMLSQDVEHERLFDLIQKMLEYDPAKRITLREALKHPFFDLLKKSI

Row | SMILES | IC50 [1] | IC50 [2] | IC50 [3]
1 | COc1cc(S(=O)(=O)N2CCOCC2)ccc1Nc1cc(NC(C)C)c2cc[nH]c2n1 [Example 13, N^4-isopropyl-N^6-(2-methoxy-4-(morpholinosulfonyl)phenyl)-1H-pyrrolo[2,3-b]pyridine-4,6-diamine] | 301 to 1000 nM | 301 to 1000 nM | 301 to 1000 nM
2 | COc1cc(S(C)(=O)=O)ccc1Nc1cc(NC2CCCCC2)c2cc[nH]c2n1 [Example 30, N^4-cyclohexyl-N^6-(2-methoxy-4-(methylsulfonyl)phenyl)-1H-pyrrolo[2,3-b]pyridine-4,6-diamine] | 301 to 1000 nM | 301 to 1000 nM | 301 to 1000 nM
3 | COc1cc(S(=O)(=O)N2CCOCC2)ccc1Nc1cc(NC2CC2)c2cc[nH]c2n1 [Example 15, N^4-cyclopropyl-N^6-(2-methoxy-4-(morpholinosulfonyl)phenyl)-1H-pyrrolo[2,3-b]pyridine-4,6-diamine] | < 100 nM | 301 to 1000 nM | 301 to 1000 nM
4 | CCNc1cc(Nc2ccc(S(=O)(=O)N3CCOCC3)cc2OC)nc2[nH]ccc12 [Example 11, N^4-ethyl-N^6-(2-methoxy-4-(morpholinosulfonyl)phenyl)-1H-pyrrolo[2,3-b]pyridine-4,6-diamine 2,2,2-trifluoroacetate] | 101 to 300 nM | 301 to 1000 nM | 301 to 1000 nM
5 | CCNc1cc(Nc2ccc(C(=O)N3C[C@@H](C)O[C@@H](C)C3)c3c2OCC3)nc2[nH]cc(C(F)(F)F)c12 [Example 258, ((2S,6R)-2,6-dimethylmorpholino) (7-((4-(ethylamino)-3-(trifluoromethyl)-1H-pyrrolo[2,3-b]pyridin-6-yl)amino)-2,3-dihydrobenzofuran-4-yl)methanone] | 301 to 1000 nM | < 100 nM | 101 to 300 nM
6 | CCNc1cc(Nc2ccc(C(=O)N3CCO[C@@H](C)C3)c3c2OCC3)nc2[nH]cc(C(F)(F)F)c12 [Example 259, (S)-(7-((4-(ethylamino)-3-(trifluoromethyl)-1H-pyrrolo[2,3-b]pyridin-6-yl)amino)-2,3-dihydrobenzofuran-4-yl)(2-methylmorpholino) methanone] | < 100 nM | < 100 nM | < 100 nM
7 | CCNc1cc(Nc2ccc(C(=O)N3CCOCC3)c3c2OCCO3)nc2[nH]cc(Cl)c12 [Example 57, (8-((3-chloro-4-(ethylamino)-1H-pyrrolo[2,3-b]pyridin-6-yl)amino)-2,3-dihydrobenzo[b] [1,4]dioxin-5-yl)(morpholino) methanone] | < 100 nM | 301 to 1000 nM | 301 to 1000 nM
8 | CCNc1cc(Nc2ccc(C(=O)N3OCC[C@@H]3c3cc(F)cc(F)c3)c3c2OCC3)nc2[nH]cc(C(F)(F)F)c12 [Example 245, (R)-(3-(3,5-difluorophenyl)isoxazolidin-2-yl)(7-((4-(ethylamino)-3-(trifluoromethyl)-1H-pyrrolo[2,3-b]pyridin-6-yl)amino)-2,3-dihydrobenzofuran-4-yl)methanone] | 301 to 1000 nM | 301 to 1000 nM | 301 to 1000 nM
9 | CCNc1cc(Nc2ccc(C(=O)N3CCO[C@H](C)C3)c3c2OCC3)nc2[nH]cc(C(F)(F)F)c12 [Example 260, (R)-(7-((4-(ethylamino)-3-(trifluoromethyl)-1H-pyrrolo[2,3-b]pyridin-6-yl)amino)-2,3-dihydrobenzofuran-4-yl)(2-methylmorpholino) methanone] | < 100 nM | < 100 nM | < 100 nM
10 | CCNc1cc(Nc2ccc(P3(=O)CCN(Cc4ccc(OC)cc4OC)CC3)cn2)nc2[nH]cc(C(F)(F)F)c12 [Example 267, 1-(2,4-dimethoxybenzy 1)-4-(6-((4-(ethylamino)-3-(trifluoromethyl)-1H-pyrrolo[2,3-b]pyridin-6-yl)amino)pyridin-3-yl)-1,4-azaphosphinane 4-oxide] | < 100 nM | < 100 nM | < 100 nM
11 | CCCNc1cc(Nc2ccc(S(=O)(=O)N3CCOCC3)cc2OC)nc2[nH]cc(Cl)c12 [Example 66, 3-chloro-N^6-(2-methoxy-4-(morpholinosulfonyl)phenyl)-N^4-propyl-1H-pyrrolo[2,3-b]pyridine-4,6-diamine] | 301 to 1000 nM | 301 to 1000 nM | 301 to 1000 nM
12 | CCNc1cc(Nc2ccc(C(=O)N3CCC(N4C[C@@H](C)O[C@@H](C)C4)CC3)c3c2OCC3)nc2[nH]cc(C(F)(F)F)c12 [Example 263, (4-((2S,6R)-2,6-dimethylmorpholino)piperidin-1-yl)(7-((4-(ethylamino)-3-(trifluoromethyl)-1H-pyrrolo[2,3-b]pyridin-6-yl)amino)-2,3-dihydrobenzofuran-4-yl)methanone] | < 100 nM | < 100 nM | < 100 nM
13 | C=CCNc1cc(Nc2ccc(C(=O)N3CC[C@H](N4CCOCC4)C3)c3c2OCC3)nc2[nH]cc(C(F)(F)F)c12 [Example 262, (S)-(7-((4-(allylamino)-3-(trifluoromethyl)-1H-pyrrolo[2,3-b]pyridin-6-yl)amino)-2,3-dihydrobenzofuran-4-yl)(3-morpholinopyrrolidin-1-yl)methanone] | < 100 nM | 101 to 300 nM | < 100 nM
14 | COc1cc(S(=O)(=O)N2CCC(N3CCOCC3)CC2)ccc1Nc1cc(NC2CCCCC2)c2cc[nH]c2n1 [Example 23, N^4-cyclohexyl-N^6-(2-methoxy-4-((4-morpholinopiperidin-1-yl)sulfonyl)phenyl)-1H-pyrrolo[2,3-b]pyridine-4,6-diamine] | 301 to 1000 nM | 301 to 1000 nM | 301 to 1000 nM
15 | COc1cc(S(=O)(=O)N2CCOCC2)ccc1Nc1cc(NC2CCCCC2)c2cc[nH]c2n1 [Example 16, N^4-cyclohexyl-N^6-(2-methoxy-4-(morpholinosulfonyl)phenyl)-1H-pyrrolo[2,3-b]pyridine-4,6-diamine] | 301 to 1000 nM | 301 to 1000 nM | 301 to 1000 nM
16 | CNc1cc(Nc2ccc(S(=O)(=O)N3CCC(N4CCOCC4)CC3)cc2OC)nc2[nH]ccc12 [Example 18, N^6-(2-methoxy-4-((4-morpholinopiperidin-1-yl)sulfonyl)phenyl)-N^4-methyl-1H-pyrrolo[2,3-b]pyridine-4,6-diamine] | < 100 nM | 301 to 1000 nM | 301 to 1000 nM
17 | CCNc1cc(Nc2ccc(S(C)(=O)=O)cc2OC)nc2[nH]cc(Cl)c12 [Example 81, 3-chloro-N^4-ethyl-N^6-(2-methoxy-4-(methylsulfonyl)phenyl)-1H-pyrrolo[2,3-b]pyridine-4,6-diamine] | 301 to 1000 nM | 301 to 1000 nM | 301 to 1000 nM
18 | CCNc1cc(Nc2ccc(S(=O)(=O)N3CCC(N4CCOCC4)CC3)cc2OC)nc2[nH]cc(Cl)c12 [Example 74, 3-chloro-N^4-ethyl-N^6-(2-methoxy-4-((morpholinopiperidin-1-yl)sulfonyl)phenyl)-1H-pyrrolo[2,3-b]pyridine-4,6-diamine] | 101 to 300 nM | 301 to 1000 nM | 301 to 1000 nM
